Results as given in patent US9822127B2, “GAK modulators as antivirals” (Katholieke Universiteit Leuven, priority 2014, dated 2017).
In brackets after ≈: the same amount, converted by molar mass. Where two headings read alike, the source gives them in different places.

What was measured:
GAK = molecular target: T1, GAK (Homo sapiens, UniProt O14976); test: GAK binding assay (T7 phage kinase competition binding)
T1 construct: made in house; host or cells: T7 phage grown in E. coli host derived from BL21
T1 sequence (O14976 1-1311): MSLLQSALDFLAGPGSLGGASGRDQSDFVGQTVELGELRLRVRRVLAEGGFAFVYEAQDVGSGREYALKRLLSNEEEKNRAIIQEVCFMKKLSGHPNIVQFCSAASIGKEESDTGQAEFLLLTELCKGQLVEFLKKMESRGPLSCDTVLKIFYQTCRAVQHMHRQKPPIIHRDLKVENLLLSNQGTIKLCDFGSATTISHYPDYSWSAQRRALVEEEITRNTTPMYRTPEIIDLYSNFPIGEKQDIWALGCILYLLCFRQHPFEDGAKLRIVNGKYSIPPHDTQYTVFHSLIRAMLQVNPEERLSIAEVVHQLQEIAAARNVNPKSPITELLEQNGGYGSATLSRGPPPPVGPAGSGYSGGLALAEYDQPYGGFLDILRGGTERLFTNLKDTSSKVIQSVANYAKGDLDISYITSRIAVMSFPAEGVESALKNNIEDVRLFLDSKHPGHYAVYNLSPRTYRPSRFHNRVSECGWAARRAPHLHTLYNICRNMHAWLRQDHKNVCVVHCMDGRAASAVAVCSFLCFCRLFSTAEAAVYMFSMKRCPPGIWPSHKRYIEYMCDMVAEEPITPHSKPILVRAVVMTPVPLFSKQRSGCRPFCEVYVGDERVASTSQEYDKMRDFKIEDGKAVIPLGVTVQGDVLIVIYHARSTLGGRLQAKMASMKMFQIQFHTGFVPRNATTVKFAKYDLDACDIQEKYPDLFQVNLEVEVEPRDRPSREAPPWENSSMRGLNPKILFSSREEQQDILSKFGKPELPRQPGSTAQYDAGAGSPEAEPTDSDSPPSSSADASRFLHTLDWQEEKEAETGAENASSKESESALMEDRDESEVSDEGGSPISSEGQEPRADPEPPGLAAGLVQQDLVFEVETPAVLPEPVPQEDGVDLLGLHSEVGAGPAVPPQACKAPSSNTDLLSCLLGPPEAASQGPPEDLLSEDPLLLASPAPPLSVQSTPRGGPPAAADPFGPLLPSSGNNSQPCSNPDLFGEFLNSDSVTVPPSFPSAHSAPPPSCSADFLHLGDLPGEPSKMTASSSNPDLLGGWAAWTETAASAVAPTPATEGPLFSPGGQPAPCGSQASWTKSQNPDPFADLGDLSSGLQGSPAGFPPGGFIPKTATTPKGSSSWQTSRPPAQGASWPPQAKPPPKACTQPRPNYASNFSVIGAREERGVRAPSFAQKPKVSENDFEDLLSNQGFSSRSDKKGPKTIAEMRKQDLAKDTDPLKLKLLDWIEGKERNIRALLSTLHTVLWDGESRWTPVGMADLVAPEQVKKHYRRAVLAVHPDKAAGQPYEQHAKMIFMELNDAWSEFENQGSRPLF

HCV RNA replication = HCV RNA replication by luciferase assays; format: cell-based; conditions: 72 hours postelectroporation, daily treatment
AP2M1 phosphorylation = AP2M1 phosphorylation by Western analysis in Huh-7.5 cells; format: cell-based, human; conditions: calyculin A, vs DMSO control
cell culture grown DENV = test: DENV infection of Huh-7 cells, Renilla luciferase assay; format: cell-based; conditions: Dengue virus, Huh-7, 72 h, read-out: EC50, DENV infection
[1] = system: SARS Coronavirus (Virus strain: Urbani); test: microbe, parasite or virus in culture; format: cell-based
EGFR = EGFR (Homo sapiens, UniProt P00533); test: Affinity for EGFR / anti-EGFR activity; format: binding
EGFR, sequence (P00533 25-1210): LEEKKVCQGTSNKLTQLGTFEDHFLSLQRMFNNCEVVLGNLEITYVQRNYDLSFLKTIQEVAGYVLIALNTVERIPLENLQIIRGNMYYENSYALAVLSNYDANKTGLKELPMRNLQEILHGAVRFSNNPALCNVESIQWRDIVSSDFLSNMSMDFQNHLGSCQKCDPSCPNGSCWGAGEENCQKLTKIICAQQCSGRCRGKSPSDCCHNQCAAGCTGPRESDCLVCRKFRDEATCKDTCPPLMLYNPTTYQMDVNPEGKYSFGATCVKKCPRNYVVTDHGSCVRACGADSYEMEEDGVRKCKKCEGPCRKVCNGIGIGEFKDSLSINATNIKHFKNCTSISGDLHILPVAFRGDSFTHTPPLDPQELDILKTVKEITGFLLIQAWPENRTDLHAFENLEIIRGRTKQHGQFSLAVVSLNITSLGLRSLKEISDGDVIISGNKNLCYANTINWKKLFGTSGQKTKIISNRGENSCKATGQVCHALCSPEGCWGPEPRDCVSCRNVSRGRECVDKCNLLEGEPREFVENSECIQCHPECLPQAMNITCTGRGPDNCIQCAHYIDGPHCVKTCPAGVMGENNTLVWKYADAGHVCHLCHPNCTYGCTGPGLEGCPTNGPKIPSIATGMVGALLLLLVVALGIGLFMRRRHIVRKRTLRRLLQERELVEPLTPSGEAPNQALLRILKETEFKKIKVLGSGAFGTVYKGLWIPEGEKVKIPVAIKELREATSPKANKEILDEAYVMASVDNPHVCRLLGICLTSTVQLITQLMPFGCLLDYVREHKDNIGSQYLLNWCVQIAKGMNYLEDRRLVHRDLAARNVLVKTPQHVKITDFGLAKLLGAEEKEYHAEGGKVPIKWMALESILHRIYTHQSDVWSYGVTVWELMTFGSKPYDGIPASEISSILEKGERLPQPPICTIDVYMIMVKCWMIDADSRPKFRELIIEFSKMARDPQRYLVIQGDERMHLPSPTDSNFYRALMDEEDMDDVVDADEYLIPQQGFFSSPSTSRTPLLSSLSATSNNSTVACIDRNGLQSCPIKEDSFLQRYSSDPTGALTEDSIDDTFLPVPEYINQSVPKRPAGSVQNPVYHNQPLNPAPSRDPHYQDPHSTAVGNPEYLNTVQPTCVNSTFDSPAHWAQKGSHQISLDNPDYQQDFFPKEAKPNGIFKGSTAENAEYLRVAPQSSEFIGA

Huh-7.5 cells [2] = conditions: human
Vero76 = conditions: African green monkey
in vitro = conditions: African green monkey
Huh-7.5 cells [3] = test: Viability assay, alamarBlue, Huh-7.5 cells; conditions: HCVpp entry experiment
Huh-7 cells = test: Viability assay, alamarBlue, DENV infected Huh-7 cells; conditions: 72 hours
[4] = system: VSV-EB GFP-reporter virus (VSV bearing surface glycoprotein of EBOV); format: cell-based, Ebola virus
[5] = Severe acute respiratory syndrome coronavirus, Vero 76

In the case of COc1cc(-c2cnc3c(N4CCOCC4)snc3c2)cc(OC)c1OC [Example 49, 4-(6-(3,4,5-Trimethoxyphenyl)isothiazolo[4,3-b]pyridin-3-yl)morpholine], the Kd (GAK) is reported as 0.0083 µM, the remaining binding at 10 µM (GAK; single concentration of 10 μM, lower numbers indicate stronger hits, read-out: % Ctrl) is reported as 0% and the “effect on HCV RNA replication” value (HCV RNA replication) is reported as “did not affect HCV RNA replication”. For the same compound, the “p-AP2M1 to AP2M1 ratios” value (AP2M1 phosphorylation) was “reduced by either 49 or 50 in a dose-dependent manner”, the EC50 (cell culture grown DENV) was 0.8 µM and the EC50 [1] was 0.77 µg/mL (≈ 1.99 µM). The EC50 [1, 5] was 1.2 µg/mL (≈ 3.1 µM), the anti-EGFR activity (EGFR) was “lack anti-EGFR activity” and the CC50 (Huh-7.5 cells [2]) was 23.3 ± 3.4 µM. For the same compound, the CC50 (Vero76) was 50 µg/mL (≈ 129 µM), the CC50 (in vitro) was 34 µg/mL (≈ 87.8 µM) and the “effect on cellular viability” value (Huh-7.5 cells [3]) was “minimal effect on cellular viability”. For the same compound, the “effect on cellular viability” value (Huh-7 cells) was “minimal effect on cellular viability”.

In the case of COc1cc(-c2cnc3c(N4CCOCC4)snc3c2)ccc1N [Example 50, 2-Methoxy-4-(3-morpholinoisothiazolo[4,3-]pyridin-6-yl)aniline], the Kd (GAK) is reported as 0.0089 µM, the % of control binding at 10 µM (GAK; read-out: % Ctrl) is reported as 0% and the “effect on HCV RNA replication” value (HCV RNA replication) is reported as “did not affect HCV RNA replication”. For the same compound, the EC50 (cell culture grown DENV) was 2.6 µM, the EC50 [1] was 3.2 µg/mL (≈ 9.35 µM) and the EC50 [1, 5] was 2.4 µg/mL (≈ 7.01 µM). For the same compound, the “effect on VSV-EB infection, treatment alone” value [4] was “minimal inhibition of infection”, the anti-EGFR activity (EGFR) was “lack anti-EGFR activity” and the CC50 (Vero76) was 13 µg/mL (≈ 38 µM). The CC50 (in vitro) was 15 µg/mL (≈ 43.8 µM).
